Test results as given in US11433071B2, “Heterocyclylamines as PI3K inhibitors” (Incyte Corporation, priority 2011, dated 2022).

Molecular target: PI3Kδ (p110δ/p85α) (Homo sapiens (Human), UniProt O00329)
Test: PI3Kδ scintillation proximity assay (Example A3)
Type: biochemical
Conditions: assay not given
Method: [γ-^33P]ATP (10 mCi/mL) was purchased from Perkin-Elmer (Waltham, Mass.). […] PI3Kδ (p110δ/p85α) was purchased from Millipore (Bedford, Mass.). ATP, MgCl2, DTT, EDTA, MOPS and CHAPS were purchased from Sigma-Aldrich (St. Louis, Mo.). Wheat Germ Agglutinin (WGA) YSi SPA Scintillation Beads was purchased from GE healthcare life sciences (Piscataway, N.J.).
The kinase reaction was conducted in polystyrene 384-well matrix white plate from Thermo Fisher Scientific in a final volume of 25 μL. Inhibitors were first diluted serially in DMSO and added to the plate wells before the addition of other reaction components. The final concentration of DMSO in the assay was 0.5%. The PI3K assays were carried out at room temperature in 20 mM MOPS, pH 6.7, 10 mM MgCl2, 5 mM DTT and CHAPS 0.03%. Reactions were initiated by the addition of ATP, the final reaction mixture consisted of 20 μM PIP2, 20 μM ATP, 0.2 μCi [γ-^33P] ATP, 4 nM PI3Kδ. […] 25 mM EDTA, 400 µM ATP. The final concentration of SPA beads was 1.0 mg/mL. After the plate sealing, plates were shaken overnight at room temperature and centrifuged at 1800 rpm for 10 minutes, the radioactivity of the product was determined by scintillation counting on Topcount (Perkin-Elmer). IC50 determination was performed by fitting the curve of percent control activity versus the log of the inhibitor concentration using the GraphPad Prism 3.0 software.

Chain of PI3Kδ (p110δ/p85α) (O00329 whole entry): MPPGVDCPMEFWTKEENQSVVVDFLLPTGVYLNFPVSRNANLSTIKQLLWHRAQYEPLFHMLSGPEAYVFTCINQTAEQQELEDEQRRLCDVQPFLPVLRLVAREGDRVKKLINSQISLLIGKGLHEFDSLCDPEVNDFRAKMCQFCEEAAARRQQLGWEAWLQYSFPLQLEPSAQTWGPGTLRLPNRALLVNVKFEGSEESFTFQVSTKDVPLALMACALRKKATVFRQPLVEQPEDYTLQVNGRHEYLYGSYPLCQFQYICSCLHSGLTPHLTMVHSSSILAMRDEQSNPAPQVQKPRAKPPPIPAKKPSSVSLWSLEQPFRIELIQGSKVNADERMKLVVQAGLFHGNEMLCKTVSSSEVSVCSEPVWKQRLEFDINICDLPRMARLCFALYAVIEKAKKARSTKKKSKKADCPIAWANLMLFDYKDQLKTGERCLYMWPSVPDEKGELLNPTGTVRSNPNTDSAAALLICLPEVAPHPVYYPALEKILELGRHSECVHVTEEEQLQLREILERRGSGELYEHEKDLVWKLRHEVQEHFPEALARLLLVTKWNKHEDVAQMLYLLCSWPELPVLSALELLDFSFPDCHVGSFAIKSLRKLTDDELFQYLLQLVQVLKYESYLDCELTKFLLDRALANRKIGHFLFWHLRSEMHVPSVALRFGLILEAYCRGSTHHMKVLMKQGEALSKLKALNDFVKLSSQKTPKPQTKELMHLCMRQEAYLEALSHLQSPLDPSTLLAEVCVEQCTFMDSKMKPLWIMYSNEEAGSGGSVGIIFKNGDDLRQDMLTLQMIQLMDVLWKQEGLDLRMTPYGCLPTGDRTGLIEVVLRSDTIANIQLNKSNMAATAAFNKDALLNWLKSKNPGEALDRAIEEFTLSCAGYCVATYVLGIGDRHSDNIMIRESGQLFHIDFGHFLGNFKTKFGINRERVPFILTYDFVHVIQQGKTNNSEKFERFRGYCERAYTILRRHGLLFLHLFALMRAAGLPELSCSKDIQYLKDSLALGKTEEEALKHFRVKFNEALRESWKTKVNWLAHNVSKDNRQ
Chain of PI3Kδ (p110δ/p85α) (P27986 whole entry partner): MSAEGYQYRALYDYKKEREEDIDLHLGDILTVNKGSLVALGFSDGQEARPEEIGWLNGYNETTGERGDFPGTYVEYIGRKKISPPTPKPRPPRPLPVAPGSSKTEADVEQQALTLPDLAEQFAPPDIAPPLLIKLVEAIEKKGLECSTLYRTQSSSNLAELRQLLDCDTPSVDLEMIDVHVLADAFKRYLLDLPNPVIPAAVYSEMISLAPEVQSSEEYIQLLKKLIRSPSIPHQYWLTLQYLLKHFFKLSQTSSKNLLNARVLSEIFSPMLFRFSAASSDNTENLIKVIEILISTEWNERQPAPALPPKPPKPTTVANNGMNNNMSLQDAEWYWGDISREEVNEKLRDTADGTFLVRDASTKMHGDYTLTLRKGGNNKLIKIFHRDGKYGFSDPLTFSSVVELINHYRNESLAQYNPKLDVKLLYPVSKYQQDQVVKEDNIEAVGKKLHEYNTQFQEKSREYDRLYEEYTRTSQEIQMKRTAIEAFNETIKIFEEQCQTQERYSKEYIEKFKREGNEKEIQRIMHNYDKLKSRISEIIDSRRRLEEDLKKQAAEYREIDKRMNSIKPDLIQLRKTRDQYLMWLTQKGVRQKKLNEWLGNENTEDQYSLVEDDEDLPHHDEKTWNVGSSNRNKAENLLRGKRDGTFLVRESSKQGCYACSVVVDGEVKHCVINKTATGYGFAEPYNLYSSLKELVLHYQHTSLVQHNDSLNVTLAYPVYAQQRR

Compound: CCOc1c(C(C)n2nc(C)c3c(N)ncnc32)cc(Cl)c(F)c1C1CNC(=O)O1 (stereo not shown) [Example 357, 5-{3-[1-(4-amino-3-methyl-1H-pyrazolo[3,4-d]pyrimidin-1-yl)ethyl]-5-chloro-2-ethoxy-6-fluorophenyl}-1,3-oxazolidin-2-one]
- relative activity among the four separated stereoisomers (peaks 1-4): most active enantiomer
